One block for each molecule: values may come before it. Residues, ends and D or L forms follow the SMILES beside them. *: point of attachment. AMC = Cc1cc(=O)oc2cc(N*)ccc12; Boc = CC(C)(C)OC(=O)*
Experiments:
pancreatic elastase I = pancreatic elastase I (Sus scrofa, UniProt P00772); experiment: Cleavage of peptides by purified pancreatic elastase, MALDI-TOF/TOF; conditions: 25 nM protease, 10 µM peptide, 37 °C, time points 2, 5, 10, 30 min
Source text: Trypsin-like proteases included in the experiments are trypsin-1, -2 and -3, tryptase (Enzo LifeSciences), thrombin (Sigma-Aldrich) and cathepsin G (Sigma-Aldrich). Trypsin-1, -2 and -3 were produced as described by Koistinen et al. and Wu et al.. Two elastase-like enzymes, neutrophil elastase (Enzo LifeSciences, Farmingdale, NY, USA) and pancreatic elastase I (Sigma-Aldrich) were included as well. All enzymes were from human origin except for pancreatic elastase from porcine pancreas.
Reaction mixtures with purified enzymes were compiled in an identical way. […] Substance P was added as the standard peptide except for the reaction mixtures with substance P or bradykinin as the peptide of interest, where angiotensin II (Bachem) was added.
The TFA mixtures were thawed on ice and desalted using C18 zip-tips (Merck Millipore®, Burlington, MA, USA) with a capacity of 5 µg protein. Retained peptide fragments were eluted directly on the MALDI target plate. Next, 0.5 µL of a 2.5 mg/mL α-cyano-4-hydroxycinnamic acid (Sigma-Aldrich) matrix solution (in 70% acetonitrile, 0.1% TFA) was spotted on top of the sample. A 6-Peptide mixture Kit (AB Sciex, Framingham, MA, USA) containing bradykinin (2–9), angiotensin I, glu1-fibrinopeptide, ACTH (1–17), ACTH (18–39) and ACTH (7–38) was diluted with matrix and spotted on the plate as well.
MS and MS/MS data for peptide fragment identification were obtained with a MALDI-TOF/TOF instrument (4800 MALDI TOF/TOF™, Applied Biosystems, Waltham, MA, USA) and instrument parameters were set using 4000 Series Explorer™ software. MS spectra were recorded in positive reflector mode in a mass range from 500 to 4000 Da and laser intensity of 4500–4800 Hz. The spectra were calibrated using the calibration mixture mentioned above to a mass tolerance of 0.1 Da. MS/MS spectra were recorded with high-energy collision-induced dissociation and the laser intensity was increased by 10%.
Identified fragments were confirmed using the MS/MS spectra and mMass 5.5.0 by Martin Strohalm. The relative intensities of the fragments were calculated as the ratio of the intensity of the peak of interest to the intensity of the peak of the standard peptide.

[1] = tested on: T-cell transfer colitis mouse model; conditions: treated mice; cited from earlier work
trypsin-3 = target: T1, trypsin-3 (Homo sapiens, UniProt P35030); experiment: Michaelis-Menten constant of fluorogenic substrates with trypsin-3; type: biochemical; parameters: made in house; conditions: trypsin-3 0.015 nM, range of substrate concentrations, 37 °C, fluorescence measured kinetically 20 min, Michaelis-Menten fit, experiment repeated twice
T1 sequence (P35030 1-304): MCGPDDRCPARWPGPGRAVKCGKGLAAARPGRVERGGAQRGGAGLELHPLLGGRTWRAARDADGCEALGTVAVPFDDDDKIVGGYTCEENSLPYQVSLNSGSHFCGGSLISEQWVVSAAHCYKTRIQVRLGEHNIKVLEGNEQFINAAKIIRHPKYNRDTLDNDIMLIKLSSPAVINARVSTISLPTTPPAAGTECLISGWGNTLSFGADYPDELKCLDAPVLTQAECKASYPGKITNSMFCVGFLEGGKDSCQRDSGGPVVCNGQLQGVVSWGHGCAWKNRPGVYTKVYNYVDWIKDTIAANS
Protocol: (§1) Preheated substrate was added to colonic lysate to start the reaction. Fluorescence was measured for 20 min at 37 °C on a Tecan Infinite F200 pro microtiter plate reader. A calibration curve with AMC (Sigma-Aldrich, Saint Louis, MO, USA) was used to determine activities in units per liter, where a unit is defined as the amount of enzyme that catalyzes the conversion of one micromole of the substrate per minute in the specific experimental conditions described. Activities were normalized to protein concentration determined with Bradford to obtain activities in units per gram protein. Km for trypsin-1, trypsin-2, trypsin-3 and thrombin with Boc-QAR-AMC and Tos-GPR-AMC were also determined (Figure S5).
(§2) Figure S 5: Michaelis-Menten constant (Km) for (a) trypsin-1, (b) trypsin-2, (c) trypsin-3 and (d) thrombin with Boc-QAR-AMC and Tos -GPR-AMC. The Km was determined with Boc -QAR-AMC and Tos -GPR-AMC by adding trypsin-1 (0.015 nM), trypsin -2 (0.015 nM), trypsin -3 (0.015 nM) or thrombin (0.19 nM) to a range of substrate concentrations at 37° C. The fluorescence was measured kinetically for 20 min at 37° C on a Tecan F200 multi-plate reader. The results in RFU/min were recalculated by dividing them by the slope of a calibration curve with AMC (0.78 – 10 µM) to obtain results in µmol/L/min. […]

thrombin = thrombin (Homo sapiens, UniProt P00734); experiment: Michaelis-Menten constant of fluorogenic substrates with thrombin; type: biochemical; parameters: thrombin (Sigma-Aldrich); purchased Sigma-Aldrich; conditions: thrombin 0.19 nM, range of substrate concentrations, 37 °C, fluorescence measured kinetically 20 min, Michaelis-Menten fit, experiment repeated twice
Protocol: as §1, §2

[2] = substrate: Cc1cc(=O)oc2cc(NC(=O)[C@H](CCCNC(=N)N)NC(=O)[C@H](C)NC(=O)[C@H](CCC(N)=O)NC(=O)OC(C)(C)C)ccc12; experiment: Michaelis-Menten constant of fluorogenic substrates with trypsin-2; type: biochemical, human; conditions: other: trypsin-2 0.015 nM, range of substrate concentrations, 37 °C, fluorescence measured kinetically 20 min, Michaelis-Menten fit, experiment repeated twice
Protocol: as §1, §2

Chain of pancreatic elastase I (P00772 27-266): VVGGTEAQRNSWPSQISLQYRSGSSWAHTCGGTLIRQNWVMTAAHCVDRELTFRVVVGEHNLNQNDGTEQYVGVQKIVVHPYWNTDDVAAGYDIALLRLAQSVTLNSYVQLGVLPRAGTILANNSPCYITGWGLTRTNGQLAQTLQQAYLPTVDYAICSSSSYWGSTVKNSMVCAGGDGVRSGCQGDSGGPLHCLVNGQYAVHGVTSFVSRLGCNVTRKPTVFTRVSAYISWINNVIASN

Molecule: CSCC[C@H](NC(=O)[C@H](Cc1ccccc1)NC(=O)CNC(=O)CNC(=O)[C@@H](N)Cc1ccc(O)cc1)C(=O)O [M-enkephalin, Met-enkephalin]
Incubation time at which the first cleavage or decrease of the full-length peptide was observed, pancreatic elastase (pancreatic elastase I): 30 min

Molecule: CC(C)C[C@H](NC(=O)[C@H](Cc1ccccc1)NC(=O)CNC(=O)CNC(=O)[C@@H](N)Cc1ccc(O)cc1)C(=O)O [L-enkephalin, Leu-enkephalin]
Incubation time at which the first cleavage or decrease of the full-length peptide was observed, pancreatic elastase (pancreatic elastase I): 30 min

Molecule: CC(=O)Nc1ccc(OP(=O)(Oc2ccc(NC(C)=O)cc2)C(Cc2ccc(N=C(N)N)cc2)NC(=O)OCc2ccccc2)cc1.Cl (stereo not shown) [UAMC-00050]
Effect on intestinal inflammation and permeability [1]: ameliorated intestinal inflammation and permeability
Effect on mRNA expression of PAR4 [1]: decreased the mRNA expression of PAR4

Km (trypsin-3): 4.6 ± 0.3 µM
Km (thrombin): 2510 ± 285 µM
Molecule: Cc1cc(=O)oc2cc(NC(=O)[C@H](CCCNC(=N)N)NC(=O)[C@H](C)NC(=O)[C@H](CCC(N)=O)NC(=O)OC(C)(C)C)ccc12 [Boc-QAR-AMC] (Boc-Gln-Ala-Arg-{AMC})

B1: trypsin-2 (Homo sapiens) (protein)
chain: IVGGYICEENSVPYQVSLNSGYHFCGGSLISEQWVVSAGHCYKSRIQVRLGEHNIEVLEGNEQFINAAKIIRHPKYNSRTLDNDILLIKLSSPAVINSRVSAISLPTAPPAAGTESLISGWGNTLSSGADYPDELQCLDAPVLSQAECEASYPGKITNNMFCVGFLEGGKDSCQGDSGGPVVSNGELQGIVSWGYGCAQKNRPGVYTKVYNYVDWIKDTIAANS
notes: made in house
Km [2]: 11.8 ± 0.1 µM

From PMC8509398, “Proteolytic Cleavage of Bioactive Peptides and Protease-Activated Receptors in Acute and Post-Colitis” (International Journal of Molecular Sciences, 2021)
